{"source": "patent US20230103142A1", "about": "“SMALL MOLECULE REGULATORS OF NOTCH1 AND USES THEREOF” (THE PENN STATE RESEARCH FOUNDATION, priority 2020, published 2023)", "key": {"[1]": {"tested_on": "Notch1 silenced HCT116 cells", "details": "vs scrambled transfected HCT116, 24 h", "method": "(§1) Cell culture and supplies: HCT116, SW-620, TCCSUP, UMUC3, HT1376, 5637, T24 and RT4 cells were purchased from ATCC (American Type Culture Collection; Manassas, Va., USA). HCT116, T24, RT4 were maintained in McCoy's medium, TCCSUP, UMUC3, HT1376 in EMEM, SW620 in DMEM and 5637 in RPMI medium, respectively, and supplemented with 10% FBS and penicillin (100 units/mL) and streptomycin (100 units/mL; Millipore Sigma, St Louis, […]., USA) in the presence of 5% CO2 at 37° C. pCMV6-NOTCH1, vector pCMV6-Entry (NOTCH′ (NM_017617) Human ORF Clone; Origene) and NOTCH1 Human siRNA Oligo Duplex were obtained from Origene Technologies Inc. (Rockville, Md., USA). Lipofectamine 2000 reagent was used following the manufacturer's (Cat #11668019; ThermoFisher Scientific) instruction, transfection with overexpression vectors was performed with 500 ng plasmid concentration, while the siRNA was used in 25 nM concentration. Cells were allowed to be transfected for 48 hrs and later harvested or treated for further analysis. Neomycin ([…]) selection media was used to cultivate Notch1-overexpressing HCT116 clones (C1, C2, C3, C4, C5)."}, "Notch1/HCT116 clone C4": {"tested_on": "Notch1/HCT116 clone C4", "details": "read-out: IC50 cell growth; C4 transfectants, 24 h", "method": "as §1"}, "Notch1/HCT116 clone C5 [2]": {"tested_on": "Notch1/HCT116 clone C5", "details": "read-out: IC50 cell growth; C5 transfectants, 24 h", "method": "as §1"}, "[3]": {"tested_on": "Notch1/HCT116 (C4) xenografts", "test": "xenograft tumor growth study", "details": "5 mg/kg intraperitoneally thrice a week, 4 weeks", "experimental": "Xenograft studies: Six- to eight-week-old BALB/c athymic nude mice (nu/nu) (Jackson Laboratory: Bar Harbor, Me., USA) were subcutaneously injected with pCMV/HCT116 and C4 (1×10^6 cells). The monitoring and measurements were performed."}, "[4]": {"tested_on": "NICD and HES1 in HCT116 cells", "details": "HCT116, IC50 concentration", "method": "(§2) Protein extraction and western blotting: Mammalian Protein Extraction Reagent (Thermo Scientific, Rockford, Ill., USA) was used to extract total protein from pCMV/HCT116, C4, and C5 cells as well as bladder cancer cells were prepared with the according to the manufacturer's instructions. Western blotting was performed using specific antibodies against Notch1 (Cat: 3447S), Bcl-2 (Cat: 2872S), E-cadherin (Cat: 3195S), N-cadherin (Cat: 13116S), Snail (Cat: 3879S), β-catenin (Cat: 8480S), NF-κB (p65), Bax (Cat: 5023S), cleaved PARP (Cat: 9541L) (Cell Signaling Technology; Danvers, Mass., USA), and β-actin (Santa Cruz Biotechnologies, Dallas, Tex., USA), HES1 (Genescript; Lot QC1851, Piscataway, N.J., USA). Actin presented in the images represent the loading control for one or more markers from same cell lysates. Chemiluminescence was used to detect the positive bands on the membrane."}, "[5]": {"tested_on": "NICD and HES1 in SW620 cells", "details": "SW620, IC50 concentration", "method": "as §2"}, "HCT116 cells": {"tested_on": "HCT116 cells", "details": "read-out: IC50 cell viability", "experimental": "(§3) Six biological replicates used for MTT assays and it was repeated twice for each experiment. […] The anchorage-independent growth assay was performed and repeated in triplicate."}, "[6]": {"tested_on": "Bladder Cancer cells (TCCSUP and HT1376)", "test": "MTT assay in bladder cancer cells with low basal Notch1", "details": "low basal level of Notch1, 24 h", "text": "Six biological replicates used for MTT assays and it was repeated twice for each experiment. Data are presented, from independent experiments, as the mean±standard deviation (SEM/SD). The Student's t-test was used to calculate the statistical significance between the vehicle and treatment at each concentration. *p<0.05, **p<0.01 and ***p<0.001. […] Six biological replicates used for MTT assays and it was repeated twice for each experiment. Data are presented, from independent experiments, as the mean±standard deviation (SEM/SD). The Student's t-test was used to calculate the statistical significance between the vehicle and treatment at each concentration. *p<0.05 and # Not significant.\nSix biological replicates used for MTT assays and it was repeated twice for each experiment."}, "Notch1/HCT116 clone C5 [7]": {"tested_on": "Notch1/HCT116 clone C5", "test": "colony forming assay", "experimental": "as §3"}}, "note": "Read-outs that look alike come from different tables or passages of the source.", "data": [{"compound": "CC1=C(CO)C(=O)O[C@@H]([C@@H](C)[C@H]2CC[C@H]3[C@@H]4C[C@H]5O[C@]56[C@@H](OC(=O)c5ccccn5)C=CC(=O)[C@]6(C)[C@H]4CC[C@]23C)C1", "note": "[ASR490, Pyridine-2-carboxylic acid {17-[1-(5-hydroxymethyl-4-methyl-6-oxo-3,6-dihydro-2H-pyran-2-yl)-ethyl]-10,13-dimethyl-1-oxo, 4,6,7,8,9,10,11,12,13,14,15,16,17-tetradecahydro-20-oxacyclopropa[5,6]cyclopenta[a]phenanthren-4-yl}ester]", "values": [{"measurement": "growth of Notch1 silenced cells", "setting": "[1]", "result": "failed to inhibit the growth"}, {"measurement": "IC50", "setting": "Notch1/HCT116 clone C4", "result": 800, "unit": "nM"}, {"measurement": "IC50", "setting": "Notch1/HCT116 clone C5 [2]", "result": 1100, "unit": "nM"}, {"measurement": "tumor growth", "setting": "[3]", "result": "significant tumor growth inhibition"}, {"measurement": "expression of NICD and HES1 protein", "setting": "[4]", "result": "Significant downregulation"}, {"measurement": "expression of NICD and HES1 protein", "setting": "[5]", "result": "Significant downregulation"}, {"measurement": "IC50", "setting": "HCT116 cells; HCT 116, 24-h", "result": 750, "unit": "nM"}, {"measurement": "IC50", "setting": "HCT116 cells; HCT 116, 48-h", "result": 600, "unit": "nM"}, {"measurement": "growth of bladder cancer cells", "setting": "[6]", "result": "failed inhibit their growth"}, {"measurement": "reduction of colony forming ability", "setting": "Notch1/HCT116 clone C5 [7]", "result": 26.66, "unit": "%"}]}]}
